Measured values taken from paper PMC10272112 (Nature Communications, 2023).
pEC50, pKd: −log10 of the molar value. Where two headings read alike, the source gives them in different places.

Experiments:
[1] = biological target: HDACs (HDAC1, HDAC2, HDAC6); assay: Chemoproteomic competition pulldown assay (HDAC panel); format: binding
Protocol: To identify proteins directly bound by lipoic acid, we employed a chemoproteomic competition assay. Briefly, (R/S)-LA was immobilized on sepharose beads via an amidation reaction to form an affinity matrix (abbreviated as iL; Fig. 1a). This affinity matrix can be incubated with cell lysate to pull down potential LA or LM target proteins and identify these targets via bottom-up proteomics. In a competition assay, free LA or LM were incubated with lysate at different concentrations before pulling down and quantifying target proteins. […] (Fig. 1b, see “Methods” for details). […] The lysate buffer used in this assay contains 1 mM DTT to mimic the intracellular reductive milieu and to reduce lipoic acid and LM. […] Additional competition assays performed in lung adenocarcinoma cell A549 lysate also identified HDAC1, HDAC2, and HDAC6 as targets (Supplementary Fig. 1b). Amongst the three cell lines tested, HDACs were the only confidently identified targets across the 1500–3000 proteins quantified in these assays. […] We validated the results by analogous pulldown competition assays using two other affinity matrices prepared via the immobilization of either the HDAC inhibitor Quisinostat (iQ) and an analog of the class IIa HDAC inhibitor Bürli’s 31[14] (iC)[12]. We have previously shown that these affinity matrices specifically bind to the active sites of HDACs and have used them for HDACi selectivity profiling. Indeed, binding of (R/S)-LA and (R/S)-LM to HDAC1, HDAC2, HDAC3, HDAC6, and, to a lesser extent, HDAC8 was confirmed in these assays (Supplementary Fig. 1c, d). No binding to class IIa HDACs or the recently discovered common HDAC inhibitor off-target MBLAC2 was observed (Supplementary Fig. 1e)[12]. […] This observation might reflect electrostatic repulsion between the HDAC10 active site gate-keeper glutamic acid residues[15],[16] and the terminal carboxylic acid of LA.
To assess the degree of protein depletion from lysates by the affinity matrix, a second pulldown (PDPD) with fresh beads was performed using the unbound protein fraction from the vehicle control flow through. The beads were washed (1 × 1 mL of lysis buffer without inhibitors and only 0.4% Igepal, 2 × 2 mL of lysis buffer without inhibitors and only 0.2% Igepal), and captured proteins were denatured with 8 M urea buffer, alkylated with 55 mM chloroacetamide and digested with Trypsin according to standard procedures. […]
For the competition assays, relative binding was calculated based on the protein intensity ratio to the DMSO control for every single inhibitor concentration. […] The correction factor is determined by calculating the ratio of the protein intensity of two consecutive pulldowns of the vehicle control sample[13]. […]

TwinStrep-GST-HDAC10 = biological target: T1, TwinStrep-GST-HDAC10 (Homo sapiens, UniProt Q969S8); assay: HDAC10 TR-FRET assay; format: binding; conditions: reducing conditions (0.5 M TCEP)
T1 sequence (Q969S8 1-669): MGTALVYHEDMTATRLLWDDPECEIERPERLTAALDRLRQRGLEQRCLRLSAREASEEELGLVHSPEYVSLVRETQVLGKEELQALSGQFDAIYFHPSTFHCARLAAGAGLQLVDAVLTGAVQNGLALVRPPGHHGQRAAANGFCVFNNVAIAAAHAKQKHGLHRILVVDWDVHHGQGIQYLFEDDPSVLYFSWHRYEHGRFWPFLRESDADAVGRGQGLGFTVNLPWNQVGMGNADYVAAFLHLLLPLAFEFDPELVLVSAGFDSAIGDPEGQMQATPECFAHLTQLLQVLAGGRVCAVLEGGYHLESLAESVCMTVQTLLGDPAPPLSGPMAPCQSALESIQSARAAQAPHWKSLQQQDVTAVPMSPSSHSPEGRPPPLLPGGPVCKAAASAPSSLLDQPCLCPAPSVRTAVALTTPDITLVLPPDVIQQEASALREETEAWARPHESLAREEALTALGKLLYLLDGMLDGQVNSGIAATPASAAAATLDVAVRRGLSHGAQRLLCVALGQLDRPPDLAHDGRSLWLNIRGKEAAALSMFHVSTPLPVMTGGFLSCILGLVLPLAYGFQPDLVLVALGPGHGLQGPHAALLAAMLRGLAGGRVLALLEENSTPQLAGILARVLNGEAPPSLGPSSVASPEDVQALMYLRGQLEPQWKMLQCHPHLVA
Protocol: To validate the inhibition of HDACs by LA and LM and elaborate on the structure-activity relationship (SAR) of enantiomers as well as oxidized versus reduced forms of the molecules, we performed enzyme activity assays for recombinant HDAC1,2,3,6,8 as well as FRET-based binding assay for recombinant HDAC10.
Inhibitors with a D300e Digital Dispenser (Tecan). After drug dosing to the premixed assay reagents in buffer, plates were shaken (800 rpm orbital shaker, 30 s), centrifuged (300g, 1 min), and incubated at RT in the dark for 90 min. TR-FRET was measured with a CLARIOstar (BMG Labtech) plate reader, equipped with TR-FRET filters.

[2] = iL, SW620 lysate, 1 mM DTT, range over HDAC1, HDAC2, HDAC6, read-out: affinities (Kd app)

`O=C(O)CCCCC1CCSS1` (racemic) [(R/S)-LA, (R/S)-lipoic acid] gave a pKd [1, 2] of 4.48 to 5.52, a pEC50 ([1]; peer review response, read-out: EC50 in chemoproteomic competition assays) of 4.52 to 5.30 and a pKd ([1]; peer review response, read-out: potency of target binding (Kd)) of 4.52 to 5.30. The “fold lower affinity to HDAC10 compared to Vorinostat” value (TwinStrep-GST-HDAC10) was roughly 200 fold.

In the case of `NC(=O)CCCCC1CCSS1` (racemic) [(R/S)-LM, (R/S)-lipoamide], the pKd [1, 2] was 4.48 to 5.52 and the “fold lower affinity to HDAC10 compared to Vorinostat” value (TwinStrep-GST-HDAC10) was 5 fold.
